Assay results from patent US12503452B2 (Curza Global, LLC, priority 2019, dated 2025).
Where a name gives a salt, the structure may show the parent alone. Read-outs that look alike come from different tables or passages of the source.

Key:
[1] = biological target: Rabbit Reticulocyte Lysate (eukaryotic protein synthesis); assay: Rabbit reticulocyte lysate luciferase assay (inhibition of eukaryotic protein synthesis); assay type: biochemical; conditions: read-out: Rabbit reticulocyte IC50 (μM/% inhib.)
Procedure, shortened: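 Nuclease-treated rabbit reticulocyte lysate translating luciferase control RNA, with complete amino acids, was incubated at 30° C. for 90 minutes with 2-fold serial compound dilutions. Luminescence was measured after adding luciferase reagent. % inhibition was relative to water controls, with no-RNA wells as background.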

[2] = test system: E. coli S30 extract (bacterial protein synthesis); assay: E. coli S30 extract coupled transcription-translation luciferase assay (inhibition of bacterial protein synthesis); assay type: biochemical; conditions: read-out: S30 IC50 (μM/% inhib.)
Procedure, shortened: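 Cell-free coupled transcription-translation in E. coli S30 circular-DNA extract, with pBESTluc plasmid as template and complete amino acid mix. Eight 2-fold compound dilutions were incubated with the extract 1 h at 37 °C, chilled, then luciferase luminescence was read. % inhibition was taken relative to no-inhibitor wells; no-DNA wells gave background.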

P. aeruginosa (Pa) = assay: Broth microdilution minimum inhibitory concentration (MIC); assay type: cell-based; conditions: Pseudomonas aeruginosa, P. aeruginosa, read-out: Pa MIC + bicarb
Protocol: (§1) A certified BSL-2 laboratory was used for testing. Compounds were evaluated using the broth microdilution minimum inhibitory concentration (MIC) and minimum bactericidal concentration (MBC) assays defined by Clinical and Laboratory Standards Institute (CLSI) in the M26-A guideline against S. aureus (Sa), E. coli (Ec), K. pneumoniae (Kp), A. baumannii (Ab), E. faecalis (Ef) and P. aeruginosa (Pa).
(§2) MICs were determined using the Clinical Laboratory and Standards Institute (CLSI) Broth Microdilution Method with slight modification. Clinical and Laboratory Standards Institute (2012). “Methods for dilution antimicrobial susceptibility tests for bacteria that grow aerobically; approved standard, 9th ed. M07-A9. Clinical and Laboratory Standards Institute, Wayne, PA” Serial two-fold dilutions of compounds are prepared in sterile clear round-bottom 96-well plates.
(§3) To prepare microdilution trays, two-fold dilutions of antimicrobial agent are prepared in growth medium: Cation-Adjusted Mueller-Hinton Broth (CAMHB), or CAMHB supplemented with sodium bicarbonate (6.25 or 25 mM final concentration prepared from a 1.0M stock solution) or CAMHB supplemented with heat inactivated human serum (Fisher Cat. #BP2657100) 0-50% by adding 200 μL of the highest concentration to be tested (64 μg/mL, for example) in row A, mixing and transferring 100 μL from row A to 100 μL growth medium in row B, then repeating the mixing and transferring through row H of the 96-well plate, discarding the excess 100 μL remaining. This slight modification to the CLSI protocol enables evaluation of MICs for 3 compounds per plate in triplicate, albeit with only 8 compound dilutions (CLSI protocol enables 2 compounds in triplicate with 10 dilutions). Bacterial suspensions are added to a final concentration of 5×10^4 CFU/well by adding 5 μL of a 1:10 dilution of a 0.5 McFarland suspension (1×10^8 CFU/mL) for each bacterium evaluated. Bacterial suspensions were prepared using the growth method described by CLSI. Well-isolated colonies (3-5 from an agar plate) were selected using a sterile loop and used to inoculate a tube containing 4 mL of CAMHB. The cultures are incubated at 35±2° C. until it achieves or exceeds the turbidity of the 0.5 McFarland standard, determined by measuring A600nm (usually two to six hours). When growth exceeds a 0.5 McFarland standard, the turbidity is adjusted with broth to be equivalent to a 0.5 McFarland standard.

E. coli (Ec) = assay: as above; assay type: cell-based; conditions: Escherichia coli, read-out: E. coli + bicarb MIC
Protocol: as §1, §2, §3

A. baumannii (Ab) = assay: as above; assay type: cell-based; conditions: Acinetobacter baumannii, A. baumannii, read-out: Ab + bicarb MIC
Protocol: as §1, §2, §3

E. faecalis (Ef) = assay: as above; assay type: cell-based; conditions: Enterococcus faecalis, E. faecalis, read-out: Ef + bicarb MIC
Protocol: as §1, §2, §3

[3] = class by IC50 or % inhibition @ 1 μM
[4] = growth medium supplemented with sodium bicarbonate
[5] = E. coli, growth medium supplemented with sodium bicarbonate
[6] = growth medium with sodium bicarbonate
[7] = E. coli, growth medium with sodium bicarbonate

| Compound | IC50 [1, 3] [µM] | IC50 [2, 3] [µM] | MIC (P. aeruginosa (Pa); [4]) [mg/L] | MIC (E. coli (Ec); [5]) [mg/L] | MIC (A. baumannii (Ab); [4]) [mg/L] | MIC (E. faecalis (Ef); [4]) [mg/L] | also measured |
| --- | --- | --- | --- | --- | --- | --- | --- |
| CC(C)(N)C(=O)N1CCN(C(=O)Nc2ccn(-c3cccc(CCN4CCC(N)CC4)c3)c(=O)n2)CC1 [Compound 2] | > 1 | < 0.5 | > 32 | 8 to 32 | – | – | – |
| C[C@](N)(CO)C(=O)N1CCN(C(=O)Nc2ccn(-c3ccc(CCN4CCC[C@@H](N)C4)cc3)c(=O)n2)CC1 [Compound 12] | > 1 | 0.5 to 1 | > 32 | > 32 | > 32 | – | – |
| C[C@@H]1CN(CCc2ccc(-n3ccc(NC(=O)N4CCN(C(=O)C(C)(C)N)CC4)nc3=O)cc2)CC[C@H]1N [Compound 41] | > 1 | < 0.5 | – | – | > 32 | 8 to 32 | – |
| CC(N)[C@H]1CCN(CCc2ccc(-n3ccc(NC(=O)N4CCN(C(=O)C(C)(C)N)CC4)nc3=O)cc2)C1 (stereo partly drawn) [Compound 42] | > 1 | < 0.5 | 8 to 32 | < 8 | > 32 | 8 to 32 | – |
| CC(N)[C@@H]1CCN(CCc2ccc(-n3ccc(NC(=O)N4CCN(C(=O)C(C)(C)N)CC4)nc3=O)cc2)C1 (stereo partly drawn) [Compound 43] | > 1 | < 0.5 | 8 to 32 | < 8 | > 32 | 8 to 32 | – |
| CC(N)[C@@H]1CCN(Cc2ccc(-n3ccc(NC(=O)N4CCN(C(=O)C(C)(C)N)CC4)nc3=O)cc2)C1 (stereo partly drawn) [Compound 44] | > 1 | < 0.5 | – | – | > 32 | < 8 | – |
| CC(N)[C@H]1CCN(Cc2ccc(-n3ccc(NC(=O)N4CCN(C(=O)C(C)(C)N)CC4)nc3=O)cc2)C1 (stereo partly drawn) [Compound 45] | > 1 | < 0.5 | – | – | > 32 | < 8 | – |
| NC1CCN(Cc2ccc(-n3ccc(NC(=O)N4CC(N)C4)nc3=O)cc2)CC1 [Compound 49] | > 1 | > 1 | > 32 | > 32 | > 32 | – | – |
| C[C@H]1CN(C(=O)C(C)(C)N)CCN1C(=O)Nc1ccn(-c2ccc(CN3CCC(N)CC3)cc2)c(=O)n1 [Compound 56] | > 1 | < 0.5 | > 32 | < 8 | – | – | – |
| CC(C)(N)C(=O)N1CCN(C(=O)Nc2ccn(-c3ccc(CN4CCC(N)CC4)cc3)c(=O)n2)C(c2ccccc2)C1 (stereo not drawn) [Compound 59] | > 1 | > 1 | > 32 | > 32 | > 32 | – | – |
| CC(C)(N)C(=O)N1CCN(C(=O)Nc2ccn(-c3ccc(CN4CCC(N)CC4)cc3)c(=O)c2)[C@H](C(=O)O)C1 [Compound 64] | > 1 | < 0.5 | > 32 | > 32 | – | – | – |
| C[C@@H]1CN(C(=O)Nc2ccn(-c3ccc(CN4CCC(CN)CC4)cc3)c(=O)n2)CCN1C(=O)C(C)(C)N [Compound 65] | > 1 | < 0.5 | > 32 | < 8 | – | – | – |
| C[C@@H]1CN(C(=O)Nc2ccn(-c3ccc(CN4CCC(N)CC4)cc3)c(=O)n2)[C@@H](C)CN1C(=O)C(C)(C)N [Compound 74] | > 1 | – | > 32 | > 32 | > 32 | – | – |
| C[C@@H]1CN(C(=O)[C@@](C)(N)CO)CCN1C(=O)Nc1ccn(-c2ccc(CN3CCC(N)CC3)cc2)c(=O)n1 [Compound 89] | > 1 | < 0.5 | – | – | > 32 | > 32 | – |
| Cc1cc(-n2ccc(NC(=O)N3CCN(C(=O)C(C)(C)N)CC3)nc2=O)ccc1CN1CCC(N)CC1 [Compound 91] | > 1 | < 0.5 | > 32 | < 8 | > 32 | < 8 | – |
| CC(C)(N)C(=O)N1CCN(C(=O)Nc2ccn(-c3ccc(CN4CCC(N)CC4)c(Cl)c3)c(=O)n2)CC1 [Compound 99] | > 1 | < 0.5 | > 32 | < 8 | – | – | – |
| C[C@](N)(CO)C(=O)N1CCN(C(=O)Nc2ccn(-c3cc(CN4CCC(N)CC4)cc(OC(F)(F)F)c3)c(=O)n2)CC1 [Compound 103] | > 1 | > 1 | – | > 32 | > 32 | – | – |
| CC(C)(N)C(=O)N1CCN(C(=O)Nc2ccn(-c3ccc(CN4CC(CN)C4)cc3)c(=O)n2)CC1 [Compound 133] | > 1 | < 0.5 | – | – | > 32 | > 32 | – |
| CC(C)(N)C(=O)N1CCN(C(=O)Nc2ccn(-c3ccc(CN4CC(CCN)C4)cc3)c(=O)n2)CC1 [Compound 134] | > 1 | < 0.5 | > 32 | < 8 | > 32 | 8 to 32 | – |
| CC(N)C1CCN(CCc2ccc(-n3ccc(NC(=O)N4CCN(C(=O)C(C)(C)N)CC4)nc3=O)cc2)CC1 (stereo not drawn) [Compound 168] | > 1 | < 0.5 | – | – | – | – | MIC (E. faecalis (Ef); [6]): 8 to 32 mg/L; MIC (A. baumannii (Ab); [6]): > 32 mg/L |
| CC(C)(N)C(=O)N1CCN(C(=O)Nc2ccn(-c3ccc(CN4CC[C@@H](N)C(O)C4)cc3)c(=O)n2)CC1 (stereo partly drawn) [Compound 267] | > 1 | < 0.5 | – | – | – | – | MIC (E. coli (Ec); [7]): < 8 mg/L |
| CC(Cc1ccc(-n2ccc(NC(=O)N3CCN(C(=O)C(C)(C)N)CC3)nc2=O)cc1)NCC1CNC1 (stereo not drawn) [Compound 346, hydrochloride salt] | > 1 | – | – | – | – | – | IC50 ([2]; class by IC50 or % inhibition @ 1 μM, hydrochloride salt): 0.5 to 1 µM; MIC (E. coli (Ec)): > 32 mg/L |
| CC(C)(N)C(=O)N1CCN(C(=O)Nc2ccn(-c3ccc(CNCC4(O)CNC4)cc3)c(=O)n2)CC1 [Compound 376] | – | – | – | – | – | – | IC50 ([1]; % inhibition @ 1 μM): > 1 µM; IC50 ([2]; % inhibition @ 1 μM): < 0.5 µM; MIC (A. baumannii (Ab); [6]): > 32 mg/L; MIC (P. aeruginosa (Pa); [6]): > 32 mg/L; MIC (E. coli (Ec); [7]): < 8 mg/L |
| C[C@](N)(CO)C(=O)N1CCN(C(=O)Nc2ccn(-c3ccc(CCN4CCCC(N)CC4)cc3)c(=O)n2)CC1 (stereo partly drawn) [Compound 381] | – | – | – | – | – | – | IC50 ([1]; % inhibition @ 1 μM): > 1 µM; IC50 ([2]; % inhibition @ 1 μM): < 0.5 µM; MIC (E. coli (Ec); [7]): < 8 mg/L |
